Source: ChEMBL document CHEMBL1909046, “DrugMatrix in vitro pharmacology data”

Key:
[1] = target: T1, Angiotensin-converting enzyme (Oryctolagus cuniculus, UniProt P12822); assay type: tissue-based, Lung;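 note: enzymatic inhibition of angiotensin-converting enzyme measured with FAPGG as the substrate; in other assays of this panel Not Active means under 50% inhibition at 10 µM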
T1 sequence (P12822 whole entry): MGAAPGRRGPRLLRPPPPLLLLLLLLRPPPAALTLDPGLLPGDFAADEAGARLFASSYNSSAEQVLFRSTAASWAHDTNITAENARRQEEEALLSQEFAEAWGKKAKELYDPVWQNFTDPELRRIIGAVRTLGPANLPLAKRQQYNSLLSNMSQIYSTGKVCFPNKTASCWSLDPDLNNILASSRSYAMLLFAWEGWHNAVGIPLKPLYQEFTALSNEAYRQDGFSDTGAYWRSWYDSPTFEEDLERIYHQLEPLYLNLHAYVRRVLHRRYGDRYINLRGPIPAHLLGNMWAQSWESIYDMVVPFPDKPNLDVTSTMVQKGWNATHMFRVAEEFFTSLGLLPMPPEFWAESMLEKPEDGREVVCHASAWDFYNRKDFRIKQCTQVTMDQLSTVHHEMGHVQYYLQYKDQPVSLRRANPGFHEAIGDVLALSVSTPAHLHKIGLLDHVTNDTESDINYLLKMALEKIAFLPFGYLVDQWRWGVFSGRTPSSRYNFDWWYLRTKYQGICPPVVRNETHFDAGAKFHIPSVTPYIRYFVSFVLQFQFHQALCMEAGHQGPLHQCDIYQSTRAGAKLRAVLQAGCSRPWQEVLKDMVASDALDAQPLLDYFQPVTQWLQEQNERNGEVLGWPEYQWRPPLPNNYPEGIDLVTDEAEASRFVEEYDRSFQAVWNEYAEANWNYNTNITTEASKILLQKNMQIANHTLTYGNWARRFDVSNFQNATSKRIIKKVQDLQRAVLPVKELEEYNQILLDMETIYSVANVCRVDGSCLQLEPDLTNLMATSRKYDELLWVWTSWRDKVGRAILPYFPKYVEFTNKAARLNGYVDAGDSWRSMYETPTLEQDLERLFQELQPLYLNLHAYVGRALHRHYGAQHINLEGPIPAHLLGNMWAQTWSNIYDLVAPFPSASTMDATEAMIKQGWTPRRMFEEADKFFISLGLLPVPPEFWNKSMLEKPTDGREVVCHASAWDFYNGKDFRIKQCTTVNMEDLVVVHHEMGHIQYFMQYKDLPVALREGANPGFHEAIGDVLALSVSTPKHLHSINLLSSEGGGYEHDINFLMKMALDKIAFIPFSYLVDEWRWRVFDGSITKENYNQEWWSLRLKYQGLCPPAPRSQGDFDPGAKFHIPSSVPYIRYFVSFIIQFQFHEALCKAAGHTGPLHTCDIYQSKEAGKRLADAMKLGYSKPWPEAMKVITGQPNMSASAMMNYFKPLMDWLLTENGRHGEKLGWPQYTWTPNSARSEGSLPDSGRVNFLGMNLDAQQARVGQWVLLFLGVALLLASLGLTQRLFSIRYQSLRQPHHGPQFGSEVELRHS

[2] = target: T2, Cytochrome P450 1A2 (Homo sapiens, UniProt P05177); details: bti-tn-5b1-4; note: in other assays of this panel Not Active means under 50% inhibition at 10 µM
T2 sequence (P05177 whole entry): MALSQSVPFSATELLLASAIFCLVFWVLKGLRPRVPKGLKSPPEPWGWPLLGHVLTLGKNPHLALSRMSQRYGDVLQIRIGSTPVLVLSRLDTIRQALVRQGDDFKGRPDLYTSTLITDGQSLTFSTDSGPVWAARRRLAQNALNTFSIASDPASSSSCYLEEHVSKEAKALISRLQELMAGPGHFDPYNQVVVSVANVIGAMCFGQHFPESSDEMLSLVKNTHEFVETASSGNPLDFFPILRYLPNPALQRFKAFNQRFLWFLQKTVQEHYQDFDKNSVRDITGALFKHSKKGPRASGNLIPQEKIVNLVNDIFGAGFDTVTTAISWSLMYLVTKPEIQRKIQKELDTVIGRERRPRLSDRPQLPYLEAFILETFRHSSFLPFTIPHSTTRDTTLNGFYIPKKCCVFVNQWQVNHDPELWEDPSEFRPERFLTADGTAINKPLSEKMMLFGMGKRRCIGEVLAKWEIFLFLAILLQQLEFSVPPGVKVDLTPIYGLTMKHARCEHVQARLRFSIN

[3] = target: T3, Alpha-1D adrenergic receptor (Homo sapiens, UniProt P25100); assay type: cell membranes, HEK293, Membrane; note: in other assays of this panel Not Active means under 50% inhibition at 10 µM
T3 sequence (P25100 whole entry): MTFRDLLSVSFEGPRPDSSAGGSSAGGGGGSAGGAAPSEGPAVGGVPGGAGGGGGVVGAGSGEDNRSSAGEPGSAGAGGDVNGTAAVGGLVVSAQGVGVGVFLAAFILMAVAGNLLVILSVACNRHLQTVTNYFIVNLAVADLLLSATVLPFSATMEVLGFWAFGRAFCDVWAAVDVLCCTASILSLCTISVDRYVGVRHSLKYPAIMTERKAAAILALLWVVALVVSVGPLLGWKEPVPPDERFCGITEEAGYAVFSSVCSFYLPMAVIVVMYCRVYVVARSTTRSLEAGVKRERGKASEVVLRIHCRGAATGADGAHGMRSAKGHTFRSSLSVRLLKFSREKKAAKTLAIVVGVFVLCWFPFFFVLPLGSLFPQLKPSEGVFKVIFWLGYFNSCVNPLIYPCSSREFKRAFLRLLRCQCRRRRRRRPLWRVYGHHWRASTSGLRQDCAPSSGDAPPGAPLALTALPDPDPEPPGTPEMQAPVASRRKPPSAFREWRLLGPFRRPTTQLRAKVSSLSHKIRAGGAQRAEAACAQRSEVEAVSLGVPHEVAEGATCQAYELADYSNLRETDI

[4] = target: 5-hydroxytryptamine receptor 6 (Homo sapiens, UniProt P50406); assay type: cell membranes, HeLa, Membrane; details: for Ki: read-out: Ki; for all read-outs here: in other assays of this panel Not Active means under 50% inhibition at 10 µM
Sequence of 5-hydroxytryptamine receptor 6 (P50406 whole entry): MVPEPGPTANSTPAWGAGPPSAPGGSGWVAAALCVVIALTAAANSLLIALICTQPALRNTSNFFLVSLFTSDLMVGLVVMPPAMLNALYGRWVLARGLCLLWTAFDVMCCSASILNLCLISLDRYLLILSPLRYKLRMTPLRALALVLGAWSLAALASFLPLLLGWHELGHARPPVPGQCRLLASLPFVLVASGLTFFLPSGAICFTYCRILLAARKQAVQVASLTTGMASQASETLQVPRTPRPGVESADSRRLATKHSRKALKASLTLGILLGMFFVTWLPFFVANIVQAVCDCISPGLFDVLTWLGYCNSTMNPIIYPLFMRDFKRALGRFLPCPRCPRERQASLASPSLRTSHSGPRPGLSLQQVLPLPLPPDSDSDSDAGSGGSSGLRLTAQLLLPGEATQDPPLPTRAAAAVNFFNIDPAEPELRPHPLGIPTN

[5] = target: T4, D(4) dopamine receptor (Homo sapiens, UniProt P21917); test: DRUGMATRIX: Dopamine D4.2 radioligand binding (ligand: [3H] Spiperone); assay type: cell membranes, CHO-K1, Membrane; details: cho-k1; Not Active = under 50% inhibition at 10 µM
T4 sequence (P21917 whole entry): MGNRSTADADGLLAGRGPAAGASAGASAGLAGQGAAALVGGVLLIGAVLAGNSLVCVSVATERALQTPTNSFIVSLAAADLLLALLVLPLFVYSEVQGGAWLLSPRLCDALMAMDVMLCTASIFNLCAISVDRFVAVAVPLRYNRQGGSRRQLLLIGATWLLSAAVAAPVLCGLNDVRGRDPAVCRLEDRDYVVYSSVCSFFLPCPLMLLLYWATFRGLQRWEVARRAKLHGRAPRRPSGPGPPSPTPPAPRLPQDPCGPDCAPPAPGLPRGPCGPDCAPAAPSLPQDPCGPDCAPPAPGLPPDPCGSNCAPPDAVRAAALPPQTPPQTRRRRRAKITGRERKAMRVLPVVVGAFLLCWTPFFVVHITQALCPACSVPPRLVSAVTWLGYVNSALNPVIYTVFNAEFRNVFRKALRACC

CC(C)CN(C[C@@H](O)[C@H](Cc1ccccc1)NC(=O)O[C@H]1CCOC1)S(=O)(=O)c1ccc(N)cc1
IC50 [1]: Not Active
IC50 [2]: Not Active
Ki [2]: Not Active
IC50 ([3]; hek293): Not Active
IC50 ([4]; hela): Not Active
IC50 [5]: Not Active

c1ccc(Nc2ccc(Nc3ccccc3)cc2)cc1
IC50 [1]: Not Active
IC50 [2]: Not Active
Ki [2]: Not Active
IC50 ([3]; hek293): Not Active
IC50 ([4]; hela): Not Active
IC50 [5]: Not Active

COc1cc2c3cc1Oc1cc(ccc1O)C[C@@H]1c4c(cc(OC)c(O)c4Oc4ccc(cc4)C[C@@H]3N(C)CC2)CC[N+]1(C)C.[Cl-]
IC50 [1]: Not Active
IC50 [2]: Not Active
Ki [2]: Not Active
IC50 ([3]; hek293): Not Active
IC50 ([4]; hela): Not Active
IC50 [5]: Not Active

NC(=O)N1c2ccccc2CCc2ccccc21
IC50 [1]: Not Active
IC50 [2]: Not Active
Ki [2]: Not Active
IC50 ([3]; hek293): Not Active
IC50 ([4]; hela): Not Active
IC50 [5]: Not Active

O=C1CC[C@@H](N2C(=O)c3ccccc3C2=O)C(=O)N1
IC50 [1]: Not Active
IC50 [2]: Not Active
Ki [2]: Not Active
IC50 ([3]; hek293): Not Active
IC50 ([4]; hela): Not Active
IC50 [5]: Not Active

Cc1onc(O)c1CC(N)C(=O)O (racemic) [(R,S)-AMPA]
IC50 [1]: Not Active
IC50 [2]: Not Active
Ki [2]: Not Active
IC50 ([3]; hek293): Not Active
IC50 ([4]; hela): Not Active
IC50 [5]: Not Active

Cc1ccc2cc3c(ccc4ccccc43)c3c2c1CC3 [3-METHYLCHOLANTHRENE]
IC50 [1]: Not Active
IC50 ([3]; hek293): Not Active
IC50 ([4]; hela): Not Active
IC50 [5]: Not Active

CC[C@@]1(O)C[C@H](O[C@H]2C[C@H](N(C)C)[C@H](O[C@H]3C[C@H](O)[C@H](O[C@H]4CCC(=O)[C@H](C)O4)[C@H](C)O3)[C@H](C)O2)c2c(cc3c(c2O)C(=O)c2c(O)cccc2C3=O)[C@H]1C(=O)OC [ACLARUBICIN]
IC50 [1]: Not Active
IC50 [2]: Not Active
Ki [2]: Not Active
IC50 ([3]; hek293): Not Active
IC50 ([4]; hela): Not Active
IC50 [5]: Not Active

Nc1nc2c(ncn2COCCO)c(=O)[nH]1 [ACYCLOVIR]
IC50 [1]: Not Active
IC50 [2]: Not Active
Ki [2]: Not Active
IC50 ([3]; hek293): Not Active
IC50 ([4]; hela): Not Active
IC50 [5]: Not Active

Cc1c(C)c2c(c(C)c1O)CC[C@@](C)(CCC[C@H](C)CCC[C@H](C)CCCC(C)C)O2 [ALPHA-TOCOPHEROL]
IC50 [1]: Not Active
IC50 [2]: Not Active
Ki [2]: Not Active
IC50 ([3]; hek293): Not Active
IC50 ([4]; hela): Not Active
IC50 [5]: Not Active

CN(C)c1nc(N(C)C)nc(N(C)C)n1 [ALTRETAMINE]
IC50 [1]: Not Active
IC50 ([3]; hek293): Not Active
IC50 ([4]; hela): Not Active
IC50 [5]: Not Active

Nc1c(Br)cc(Br)cc1CN[C@H]1CC[C@H](O)CC1 [AMBROXOL]
IC50 [1]: Not Active
IC50 ([3]; hek293): Not Active
IC50 ([4]; hela): Not Active
IC50 [5]: Not Active

NCCCCCC(=O)O [AMINOCAPROIC ACID]
IC50 [1]: Not Active
IC50 [2]: Not Active
Ki [2]: Not Active
IC50 ([3]; hek293): Not Active
IC50 ([4]; hela): Not Active
IC50 [5]: Not Active

CCC1(c2ccc(N)cc2)CCC(=O)NC1=O (stereo unspecified) [AMINOGLUTETHIMIDE]
IC50 [1]: Not Active
IC50 [2]: Not Active
Ki [2]: Not Active
IC50 ([3]; hek293): Not Active
IC50 ([4]; hela): Not Active
IC50 [5]: Not Active

CCOC(=O)C1=C(COCCN)NC(C)=C(C(=O)OC)C1c1ccccc1Cl (stereo unspecified) [AMLODIPINE]
IC50 [1]: Not Active
IC50 [2]: Not Active
Ki [2]: Not Active
IC50 ([3]; hek293): Not Active
IC50 [5]: Not Active

c1ccc2c(c1)c1cccc3ccc4cccc2c4c31 [BENZO[E]PYRENE]
IC50 [1]: Not Active
IC50 ([3]; hek293): Not Active
IC50 ([4]; hela): Not Active
IC50 [5]: Not Active

C[C@H](CS)C(=O)N1CCC[C@H]1C(=O)O [CAPTOPRIL]
IC50 [2]: Not Active
Ki [2]: Not Active
IC50 ([3]; hek293): Not Active
IC50 ([4]; hela): Not Active
IC50 [5]: Not Active

CN(C)CCCN1c2ccccc2Sc2ccc(Cl)cc21 [CHLORPROMAZINE]
IC50 [1]: Not Active

CC(C)(Oc1ccc(Cl)cc1)C(=O)O [CLOFIBRIC ACID]
IC50 [1]: Not Active
IC50 ([3]; hek293): Not Active
IC50 ([4]; hela): Not Active
IC50 [5]: Not Active

COc1cc2nc(N3CCN(C(=O)C4COc5ccccc5O4)CC3)nc(N)c2cc1OC (stereo unspecified) [DOXAZOSIN]
IC50 [1]: Not Active
IC50 [2]: Not Active
Ki [2]: Not Active
IC50 ([4]; hela): Not Active
IC50 [5]: Not Active

C[C@]12CC[C@@H]3c4ccc(O)cc4CC[C@H]3[C@@H]1CCC2=O [ESTRONE]
IC50 [1]: Not Active
IC50 ([3]; hek293): Not Active
IC50 ([4]; hela): Not Active
IC50 [5]: Not Active

N=C(N)NCCN1CCCCCCC1 [GUANETHIDINE]
IC50 [1]: Not Active
IC50 ([3]; hek293): Not Active
IC50 ([4]; hela): Not Active
IC50 [5]: Not Active

CC1(C)S[C@@H]2[C@H](NC(=O)Cc3ccccc3)C(=O)N2[C@H]1C(=O)O [PENICILLIN G]
IC50 [1]: Not Active
IC50 ([3]; hek293): Not Active
IC50 ([4]; hela): Not Active
IC50 [5]: Not Active

CCCN1C[C@H](CSC)C[C@@H]2c3cccc4[nH]cc(c34)C[C@H]21 [PERGOLIDE]
IC50 [1]: Not Active
IC50 [2]: Not Active
Ki [2]: Not Active
IC50 ([4]; read-out: IC50): 39 nM
Ki [4]: 18 nM
IC50 [5]: Not Active

Cc1ccc(N(CC2=NCCN2)c2cccc(O)c2)cc1 [PHENTOLAMINE]
IC50 [1]: Not Active
IC50 [2]: Not Active
Ki [2]: Not Active
IC50 ([4]; hela): Not Active
IC50 [5]: Not Active

CN(C)CCCN1c2ccccc2Sc2ccccc21 [PROMAZINE]
IC50 [1]: Not Active
IC50 ([3]; read-out: IC50): 13 nM
Ki ([3]; read-out: Ki): 6.18 nM
IC50 ([4]; read-out: IC50): 274 nM
Ki [4]: 127 nM
IC50 [5]: Not Active
